Measured values taken from patent US20100216703A1, “Inhibitors of PDE4 and Methods of Use” (THE REGENTS OF THE UNIVERSITY OF CALIFORNIA, priority 2006, published 2010).
pIC50: −log10 of the molar value. Entries after “also recorded” stand apart in the source; their conditions may differ.

Key:
CGNs = assay: Intracellular cAMP in cerebellar granule neurons; assay type: cell-based, mouse
Source text: Murine SCs were isolated as described previously (Syroid et al., 2000). NIH3T3 or HEK293 cells were cotransfected either with p75NTR FL, ICD or deletion constructs, and PDE4A5 cDNAs using Lipofectamine 2000 (Invitrogen) as described in the Results section. CGNs were isolated from P10 animals (Yamashita and Tohyama, 2003). CGNs were lysed immediately for co-IP, without plating. siRNA directed against p75NTR (Dharmacon; SMART Pool reagent, Cat. M-080041-00; Cat. M-009340) was transfected into SCs and NIH3T3p75NTR cells using Dharmafect (Dharmacon).
(§1) […] fibroblasts or 500,000 SCs were lysed in 0.1 N HCl solution and cAMP was measured using a competitive binding cAMP ELISA (Assay Designs). Cells were treated with 100 ng/ml PTX for 16 h. […] Cells were treated with forskolin in the presence of the inhibitors for 1 h. […] For the qualitative and quantitative PKA assay (Promega), cells were treated with 10 μM forskolin for 30 min, lysed in 1% NP-40 buffer with 150 mM NaCl, 50 mM Tris, and 1 mM EGTA, and protein concentration was determined using the Bradford Assay (Bio-Rad Laboratories). 1 μg was loaded into the PKA assay reaction mix according to the manufacturer's protocol (Promega).

[1] = tested on: LPS-induced lung fibrosis; assay: LPS-induced lung fibrosis / acute lung injury; assay type: in vivo, mouse
Description: Animals, sciatic nerve crush, and induction of lung fibrosis p75NTR−/− mice (Lee et al., 1992) and tPA−/− mice (Carmeliet et al., 1994) were in C57B1/6 background and purchased from The Jackson Laboratory. Double p75NTR−/−tPA−/− mice were generated by crossing p75NTR−/− mice with tPA−/− mice. C57B1/6J mice were used as controls. Sciatic nerve crush was performed as described previously (Akassoglou et al., 2000). Lung fibrosis was induced as described previously (Chen et al., 2004). For the rolipram treatments, mice were administered 5 mg/kg rolipram (Calbiochem) before the LPS injection as described previously (Miotla et al., 1998). Mice were killed 4.5 h after LPS or saline administration. For rolipram treatment after sciatic nerve injury, mice were injected with rolipram (1 mg/kg) once daily for 8 d until tissue was harvested and processed for immunostaining. Immunohistochemistry was performed as described in Akassoglou et al. (2002). Primary antibodies were sheep anti-human fibrin(ogen) (1:200; US Biologicals), rabbit anti-human tPA ( 1/300; Molecular Innovations), rabbit anti-p75NTR clone 9651, (1:1,000), goat anti-p75NTR ( 1/200; Santa Cruz Biotechnology, Inc.), rabbit anti-mouse PAI-1 (1:500; a gift from David Loskutoff, Scripps Research Institute, La Jolla, Calif.), and mouse anti-S100 (1:200; Neomarkers). For immunofluorescence, secondary antibodies were anti-rabbit FITC and anti-goat Cy3 (1:200; Jackson Immunochemicals). Images were acquired with an Axioplan II epifluorescence microscope (Carl Zeiss Microlmaging, Inc.) using dry Plan-Neofluar lenses using 10×0.3 NA, 20×0.5 NA, or 40×0.75 NA objectives equipped with Axiocam HRc digital camera and the Axiovision image analysis system. Immunoblot was performed as described previously (Akassoglou et al., 2002). Antibodies used were rabbit anti-p75NTR clones 9992 and 9651 (1:5,000), mouse anti-fibrin (1:500; Accurate Chemical & Scientific Corp.), rabbit anti-myosin (1:1,000; Sigma-Aldrich), rabbit anti-GAPDH (1:5,000; Abcam) and rabbit anti-PAI-1 (1:5,000; a gift of David Loskutoff). Quantification was performed on the Scion NIH Imaging Software. Fibrin precipitation and quantification from lung tissues was performed exactly as described previously (Ling et al., 2004). RT-PCR was performed as described previously (Akassoglou et al., 2002). Primers for tPA, uPA, and PAI-1 genes were used as described previously (Yamamoto and Loskutoff, 1996). Real-time PCR was performed using the Opticon DNA Engine 2 (MJ Research) and the Quantitect SYBR Green PCR kit (QIAGEN). Results were analyzed with Opticon 2 software using the comparative Ct method as described previously (Livak and Schmittgen, 2001). Data were expressed as ΔΔCt for the tPA gene normalized against GAPDH.

PDE4 = conditions: cited from earlier work
spinal cord injury = conditions: Nikulina et al., 2004, Pearse et al.; cited from earlier work
NIH3T3p75NTR cells [2] = assay: Competitive binding cAMP ELISA; assay type: cell-based; conditions: 16 h; PTX 100 ng/ml, IBMX 500 μM, PDE1 inh. 18.7 μM, EHNA 80 μM, trequinsin 100 nM, rolipram 10 μM, PDE5 inh. 23 μM
Description: as §1

[3] = tested on: sciatic nerve crush injury; assay: Sciatic nerve crush injury; assay type: in vivo, mouse; conditions: wt nerves 8 days after crush; rolipram 1 mg/kg once daily for 8 d
Description: Animals, sciatic nerve crush, and induction of lung fibrosis p75NTR−/− mice (Lee et al., 1992) and tPA−/− mice (Carmeliet et al., 1994) were in C57B1/6 background and purchased from The Jackson Laboratory. Double p75NTR−/−tPA−/− mice were generated by crossing p75NTR−/− mice with tPA−/− mice. C57B1/6J mice were used as controls. Sciatic nerve crush was performed as described previously (Akassoglou et al., 2000). Lung fibrosis was induced as described previously (Chen et al., 2004). For the rolipram treatments, mice were administered 5 mg/kg rolipram (Calbiochem) before the LPS injection as described previously (Miotla et al., 1998). Mice were killed 4.5 h after LPS or saline administration. For rolipram treatment after sciatic nerve injury, mice were injected with rolipram (1 mg/kg) once daily for 8 d until tissue was harvested and processed for immunostaining. Immunohistochemistry was performed as described in Akassoglou et al. (2002). Primary antibodies were sheep anti-human fibrin(ogen) (1:200; US Biologicals), rabbit anti-human tPA ( 1/300; Molecular Innovations), rabbit anti-p75NTR clone 9651, (1:1,000), goat anti-p75NTR ( 1/200; Santa Cruz Biotechnology, Inc.), rabbit anti-mouse PAI-1 (1:500; a gift from David Loskutoff, Scripps Research Institute, La Jolla, Calif.), and mouse anti-S100 (1:200; Neomarkers). […]

NIH3T3p75NTR cells [4] = assay: Quantification of tPA activity; assay type: cell-based; conditions: 10 μM forskolin 16 h; 200 nM KT5720; IBMX; rolipram
Description: Quantification of tPA and uPA activity in SC and fibroblast in lysates and supernatants was performed according to the directions of the activity assay kits from American Diagnostica and Chemicon, respectively. To elevate cAMP cells were treated either with 2 mM db-cAMP (Sigma-Aldrich) or with 10 μM forskolin (Sigma-Aldrich) for 16 h. To block PKA activity, cells were treated with 200 nM KT5720 (Calbiochem).

Primary CGNs = assay: Myelin inhibition of neurite outgrowth; assay type: cell-based, mouse; conditions: 24 hrs, myelin 1 μg/well, poly-D-lysine

| Compound | intracellular cAMP in p75NTR−/− CGNs (CGNs; p75NTR−/− cells) | intracellular cAMP in wild-type CGNs (CGNs; wild-type cells) | fibrin deposition in the lung ([1]; 5 mg/kg rolipram before LPS, vs LPS alone) | decrease in fibrin, rolipram vs. control treated wt lungs ([1]; 5 mg/kg rolipram before LPS, killed 4.5 h after LPS) | PAI-1 in the lung after LPS (quantitative PCR of transcripts) ([1]; LPS + rolipram) | PAI-1 transcripts in the lung, rolipram treatment alone ([1]; no LPS) | PDE4 isoform selectivity (PDE4; background statement) | pIC50 (PDE4) | axonal regeneration and functional recovery (spinal cord injury) | intracellular cAMP levels in NIH3T3p75NTR cells (NIH3T3p75NTR cells [2]) | fibrin deposition in the sciatic nerve [3] | tPA activity in NIH3T3p75NTR cells (NIH3T3p75NTR cells [4]) | myelin inhibition of neurite outgrowth (Primary CGNs) |
| --- | --- | --- | --- | --- | --- | --- | --- | --- | --- | --- | --- | --- | --- |
| COc1ccc(C2CNC(=O)C2)cc1OC1CCCC1 (stereo not shown) [rolipram] | no significant increase | four-fold increase in intracellular cAMP | decreased in the lung; also recorded: reduces fibrin deposition; also recorded: decreases fibrin deposition | 34% | reduction of LPS-induced PAI-1 upregulation; also recorded: decreases PAI-1 | no effect | […] | […] | […] | increase intracellular levels of cAMP; also recorded: increase levels of cAMP in NIH3T3p75NTR cells to the levels of NIH3T3 cells; also recorded: significantly increases cAMP levels | decreased levels of fibrin deposition; also recorded: statistically significant reduction of fibrin deposition; also recorded: reduces fibrin deposition; also recorded: decreases fibrin deposition | increase of tPA levels |  |
| YGRKKRRQRRRSPLDSQASPGLVLHAGATTSQRRES (listed as Homo sapiens) [peptide 25] |  |  |  |  |  |  |  |  |  |  |  |  | did not overcome myelin inhibition of neurite outgrowth |
